Details in all cases: average IC50
One test has as its target T1, human MASP2 (Homo sapiens, UniProt O00187).
T1 construct: Ig-kappa secretion signal (N, cleaved yes); made in house; host or cells: HEK293 (ATCC No. CRL-1573)
Description: Biochemical human MASP2 assay (FRET substrate). From the text: (§1) 2.1 Recombinant Expression and Protein Production of Recombinant Human MASP1 and MASP2 Active Proteases.
(§2) The MASP1 or MASP2 expression vectors were transfected into the HEK293 (ATCC No. CRL-1573) cell line using Lipofectamine LTX® Reagent (Thermo-Fischer), as described by the manufacturer. […] The MASP1 and MASP2 proteins were purified from the conditioned media by affinity chromatography on Ni-NTA Superflow resin (Qiagen) as described by the manufacturer.
2.3 Biochemical Human MASP2 Assay
(§3) Recombinant human MASP2 enzyme produced in the HEK 293 cells was diluted in the reaction buffer (50 mM HEPES pH 8,0; 100 mM NaCl; 0.01% CHAPS; 0.5 mM Gluthathione) to the concentration of 20 nM and 25 μl was transferred into each single well of 384-well white microtiter plate (Greiner Bio One 781075). 1 μl of the inhibitor compound solution (dissolved in DMSO, at the corresponding concentration) or pure DMSO as a control was added to the same wells. […] The microtiter plate was incubated for 60-120 min at the temperature of 32 C. The increase of fluorescence intensity was measured in appropriate fluorescence plate reader (e.g. TECAN Ultra) using excitation wavelength of 340 nm and emission wavelength of 490 nm. IC50 values were calculated from percentage of inhibition of human MASP2 activity as a function of test compound concentration.

In a further test the target is T2, human MASP1 (Homo sapiens, UniProt P48740).
T2 construct: Ig-kappa secretion signal (N, cleaved yes); made in house; host or cells: HEK293 (ATCC No. CRL-1573)
T2 sequence (P48740 297-448): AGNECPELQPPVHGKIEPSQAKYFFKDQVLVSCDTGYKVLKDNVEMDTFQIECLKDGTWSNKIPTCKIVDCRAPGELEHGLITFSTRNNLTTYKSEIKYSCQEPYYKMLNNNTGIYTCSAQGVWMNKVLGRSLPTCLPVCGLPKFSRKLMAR
T2 sequence (P48740 449-699): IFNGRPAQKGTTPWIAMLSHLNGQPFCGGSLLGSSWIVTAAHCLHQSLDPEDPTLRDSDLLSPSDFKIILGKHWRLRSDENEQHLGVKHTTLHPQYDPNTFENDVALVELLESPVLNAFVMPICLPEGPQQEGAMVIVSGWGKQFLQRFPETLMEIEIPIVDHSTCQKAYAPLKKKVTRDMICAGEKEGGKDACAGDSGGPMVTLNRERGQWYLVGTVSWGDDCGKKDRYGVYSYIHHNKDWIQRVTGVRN
As to the kind of experiment: Biochemical human MASP1 assay (FRET substrate).
Source text: as §1, §2
2.2 Biochemical Human MASP1 Assay
as §3, with “MASP1” for “MASP2”, “320” for “340”, “420” for “490”

For the next test, the system named is rat C3-[…]. Description: C3 deposition assay, rat serum on mannan-coated plates. Format: biochemical. The protocol: 3. C3 Deposition Assay (Human, Rat, Mouse, Dog, Mini-Pig)
The C3 deposition assay was conducted essentially as described (reference). Multi well plates (Greiner-Nunc 384 Maxi Sorp #464718) were coated over night with Mannan from Saccharomyces cerevisiae (Sigma M7504, 10 μg/mL in 0.05 M carbonate-bicarbonate buffer, pH 9.6) at 4° C. Wells were washed three times with TBS and subsequently incubated for 2 hours with 50 μL of 1% bovine serum albumin (BSA) in Tris-buffered saline (TBS) at 37° C. in order to block non-specific binding. After this step and each of the following incubation steps wells were washed three times with C3 wash buffer (TBS; 0.05% Tween 20; 5 mM CaCl2). […] When appropriately developed the color reaction was stopped by addition of 25 μL of stop solution (Sigma S5814) and quantified on a photometer by measuring absorption at a wavelength of 450 nm. Antibodies were diluted in C3 wash buffer supplemented with 0.5% BSA.

One may read the IC50 as the concentration at which inhibition is half-maximal.

Molecules are shown by their SMILES. Counter-ions that a name gives are not always drawn. Numbered stars: 1 amine (or outer) side, 2 acyl side, 3 side chain; on linkers, the order of the positions; unused ones are H or OH. Bridge positions count the residues as written; N and C are the ends. Square brackets hold non-standard residues; d marks the D form. Peptide text beside a SMILES is read from it. * marks the point of attachment. X1 = O=C(C1[C@H]2CCCC[C@H]2C[C@H]1C(=O)[*:2])[C@@H]1CCCN1[*:1]; Oic = O=C(O)[C@@H]1C[C@@H]2CCCC[C@@H]2N1; Pen = CC(C)(S)[C@H](N)C(=O)O; X2 = N[C@@H](CN*)C(=O)O; Sar = CNCC(=O)O

T1 sequence (O00187 297-444): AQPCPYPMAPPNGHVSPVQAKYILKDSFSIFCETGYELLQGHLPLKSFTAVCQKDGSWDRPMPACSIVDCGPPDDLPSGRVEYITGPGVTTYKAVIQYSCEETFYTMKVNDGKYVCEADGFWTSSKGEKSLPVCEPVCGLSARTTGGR
T1 sequence (O00187 445-686): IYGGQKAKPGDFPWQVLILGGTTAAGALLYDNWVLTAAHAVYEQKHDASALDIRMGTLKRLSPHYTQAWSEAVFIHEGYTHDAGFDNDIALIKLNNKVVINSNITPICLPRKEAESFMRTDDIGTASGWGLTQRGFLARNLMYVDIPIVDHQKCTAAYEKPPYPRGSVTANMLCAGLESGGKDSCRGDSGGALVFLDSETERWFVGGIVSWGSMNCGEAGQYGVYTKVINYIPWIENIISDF

As to `CC[C@H](C)[C@H](NC(=O)[C@H](C)NC)C(=O)N[C@H]1CSSC(C)(C)[C@@H](C(=O)N[C@H](C(=O)N2CCC[C@H]2C(N)=O)[C@@H](C)CC)NC(=O)[C@H]([C@@H](C)CC)NC(=O)[C@@H]2C[C@@]3(CN2C(=O)[C@@H]2CCCN2C(=O)[C@@H](CC(C)(C)C)NC(=O)[C@H](CO)NC(=O)[C@H](CCCNC(=N)N)NC(=O)[C@H](CO)NC1=O)CC3(F)F` (single isomer, unassigned; enantiomer 1) [Example 443], the IC50 at human MASP2 came to 74 nM; on human MASP1 it was 0.78 nM.

Regarding `CC[C@H](C)[C@H](NC(=O)CNC)C(=O)N[C@H]1CSSC(C)(C)[C@@H](C(=O)N[C@H](C(=O)N2CCC[C@H]2C(N)=O)[C@@H](C)CC)NC(=O)[C@H]([C@@H](C)CC)NC(=O)[C@@H]2C[C@@H]3CCCC[C@@H]3N2C(=O)[C@@H]2CCCN2C(=O)[C@H](CC(C)C)NC(=O)[C@H](CO)NC(=O)[C@H](CCCNC(=N)N)NC(=O)[C@H](CO)NC1=O` [Example 109, ((N-Me)G)-IC+SRSLP-(Oic)-I-(Pen)+IP-NH2] (H-[Sar]ICSRSLP[Oic]I[Pen]IP-NH2; disulfide 3-11), the concentration for half-maximal inhibition (IC50) against human MASP2 was found to be 69.6 nM; against human MASP1 it was 2.9 nM.

On to `[2H][C@@H]1[C@H]([2H])CN2C(=O)[C@H](CC(C)C)NC(=O)[C@H](CO)NC(=O)[C@H](CCCNC(=N)N)NC(=O)[C@H](CO)NC(=O)[C@@H](NC(=O)[C@@H](NC(=O)[C@H](C)N)[C@@H](C)CC)CSSC(C)(C)[C@@H](C(=O)N[C@H](C(=O)N3CCC[C@H]3C(=O)N[C@@H](CC(=O)O)C(=O)O)[C@@H](C)CC)NC(=O)[C@H]([C@@H](C)CC)NC(=O)[C@@H]3C[C@@H]4CCCC[C@@H]4N3C(=O)[C@H]12` [Example 142, N-[(1R,2S,6S,9S,12S,15S,18R,23R,26S,28aS,35aS)-18-[(L-alanyl-L-isoleucyl)amino]-26-[(2S)-butan-2-yl]-12-(3-carbamimidamidopropyl)-9,15-bis(hydroxymethyl)-22,22-dimethyl-6-(2-methylpropyl)-5,8,11,14,17,25,28,35-octaoxo(1,2-^2H2)dotriacontahydro-1H,5H,22H-pyrrolo[2′,1′:13,14][1,2,5,8,11,14,17,20,23,26]dithiaoctaazacyclononacosino[11,10-a]indole-23-carbonyl]-L-isoleucyl-L-prolyl-L-aspartic Acid], for which the IC50 was 126 nM against human MASP2, 472 nM in the test with rat C3-[…] and 2.13 nM on human MASP1.

In the case of `CC[C@H](C)[C@H](NC(=O)CNC)C(=O)N[C@H]1CSSC(C)(C)[C@@H](C(=O)N[C@H](C(=O)N2CCC[C@H]2C(N)=O)[C@@H](C)CC)NC(=O)[C@H]([C@@H](C)CC)NC(=O)[C@@H]2C[C@@H]3CCCC[C@@H]3C2C(=O)[C@@H]2CCCN2C(=O)[C@H](CC(C)C)NC(=O)[C@H](CO)NC(=O)[C@H](CCCNC(=N)N)NC(=O)[C@H](CO)NC1=O` (stereo partly shown) [Example 67, ((N-Me)G)-IC+SRSLP-(Oic)-I-(Pen)+IP-NH2 (HCl Salt)] (H-[Sar]ICSRSL[X1]I[Pen]IP-NH2; disulfide 3-10), the IC50 on human MASP2 was determined as 43 nM; against human MASP1, 2.2 nM.

For `CC[C@H](C)[C@H](NC(=O)[C@H](C)N)C(=O)N[C@H]1CSSC[C@@H](C(=O)N[C@H](C(=O)N2CCC[C@H]2C(=O)N[C@@H](CC(=O)O)C(N)=O)[C@@H](C)CC)N(C)C(=O)[C@H]([C@@H](C)CC)NC(=O)[C@@H]2C[C@@H]3CCCC[C@@H]3N2C(=O)[C@@H]2CCCN2C(=O)[C@H](CC(C)C)NC(=O)[C@H](CO)NC(=O)[C@H](CCCNC(=N)N)NC(=O)[C@H](CO)NC1=O` [Example 185, AIC+SRSLP-(Oic)-I-((N-Me)C)+IPD-NH2], the 50% inhibitory concentration (IC50) worked out at 245 nM against human MASP2, 236 nM in the test on rat C3-[…] and 4.8 nM against human MASP1.

Consider `CC[C@H](C)[C@H](NC(=O)CNC)C(=O)N[C@H]1CSSC(C)(C)[C@@H](C(=O)N[C@H](C(=O)N2CCC[C@H]2C(=O)NC[C@H](N)C(=O)O)[C@@H](C)CC)NC(=O)[C@H]([C@@H](C)CC)NC(=O)[C@@H]2C[C@@H]3CCCC[C@@H]3N2C(=O)[C@@H]2CCCN2C(=O)[C@H](CC(C)C)NC(=O)[C@H](CO)NC(=O)[C@H](CCCNC(=N)N)NC(=O)[C@H](CO)NC1=O` [Example 467] (H-[Sar]ICSRSLP[Oic]I[Pen]IP-X2; disulfide 3-11), for which the IC50 against human MASP2 came out at 55 nM; at human MASP1 it was 6.6 nM.

On to `CC[C@H](C)[C@H](NC(=O)CNC)C(=O)N[C@H]1CSSC(C)(C)[C@@H](C(=O)N[C@H](C(=O)N2CCC[C@H]2C(=O)N[C@@H](CC(=O)O)C(=O)N[C@@H](CC(=O)O)C(=O)O)[C@@H](C)CC)NC(=O)[C@H]([C@@H](C)CC)NC(=O)[C@@H]2C[C@@H]3CCCC[C@@H]3N2C(=O)[C@@H]2CCCN2C(=O)[C@H](CC(C)C)NC(=O)[C@H](CO)NC(=O)[C@H](CCCNC(=N)N)NC(=O)[C@H](CO)NC1=O` [Example 466, ((N-Me)G)-IC+SRSLP-(Oic)-I-(Pen)+IPDD-OH] (H-[Sar]ICSRSLP[Oic]I[Pen]IPDD-OH; disulfide 3-11), for which the values for the IC50 on human MASP2 and against human MASP1 were 40 nM and 0.72 nM, respectively.

Source of the values: patent publication US11667675B2, “MASP inhibitory compounds and uses thereof” (Bayer Aktiengesellschaft, priority 2019, dated 2023).
